The structures appear in SMILES notation.

As a reminder, the IC50 is the concentration that gives 50% inhibition.

Chain of human TNIK (N-terminal segment, TNIK_N, residues 1-314) (Q9UKE5 1-314): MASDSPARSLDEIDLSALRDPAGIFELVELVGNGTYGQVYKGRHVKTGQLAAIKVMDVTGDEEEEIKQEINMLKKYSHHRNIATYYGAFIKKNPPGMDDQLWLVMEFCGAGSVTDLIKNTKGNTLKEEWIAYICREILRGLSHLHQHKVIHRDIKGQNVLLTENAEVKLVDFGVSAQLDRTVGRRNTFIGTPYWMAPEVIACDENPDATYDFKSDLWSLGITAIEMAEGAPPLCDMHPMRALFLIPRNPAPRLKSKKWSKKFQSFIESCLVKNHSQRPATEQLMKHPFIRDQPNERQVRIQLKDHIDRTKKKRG

For the experiment, the target named is human TNIK (N-terminal segment, TNIK_N, residues 1-314) (Homo sapiens (Human), UniProt Q9UKE5). As to the kind of experiment: TNIK kinase assay (mobility shift). Format: biochemical. Particulars: TNIK_N kinase activity, 25 μM ATP, 1 h at room temperature. The text has this:
Preparation of Recombinant Human TNIK (N-Terminal Segment):
A cDNA encoding the N-terminal segment (TNIK_N, residues 1-314) containing the kinase domain of human TNIK (NM_015028.1) was amplified from cDNA mixture synthesized from human tissue (Biochain) by PCR using the following primers.
The cDNA was subcloned into baculovirus transfer vector pFastBac_GSTb that includes protease cleavage site and glutathione S-transferase purification tag (GST-tag). The plasmid was purified and the insertion of the pFastBac_GSTb-TNIK_N was confirmed by DNA sequencing. Then E. coli DH10Bac competent cells were transformed with the plasmid to prepare the recombinant bacmid according to the instructions for the Bac-to-Bac™ baculovirus expression systems (Invitrogen). The Sf9 cells were transfected with the recombinant bacmid containing pFastBac_GSTb-TNIK_N using Cellfectin Reagent (Invitrogen) in SF-9001I serum free media (Invitrogen). The viral supernatant was collected from the medium 72 h after transfection. The virus was amplified three times by infecting actively growing Sf9 or Sf21 cells in Grace's insect media (Invitrogen) supplemented with 10% FCS and an antibiotic-antimycotic reagent (Invitrogen) for 72 h at 27° C. in T-flask or roller bottles. The titer of amplified TNIK_N virus was estimated at 2.36×10^8 pfu/ml by using BacPAK™ Baculovirus Rapid Titer kit (Clontech).
Log-phase Sf21 cells (2×10^6 cells/ml) in the Grace's insect media were infected with the recombinant baculovirus at MOI of 3.0 and incubated in roller bottles (250 ml media per bottle) for 72 h at 27° C., after which, the cells were collected by centrifugation, and the cell pellet washed with cold PBS and kept at −80° C. until purification. The following purification procedures were carried out at 4° C. The frozen cells were thawed on ice and lysed in lysis buffer (50 mM Tris-HCl, pH 7.5, 150 mM NaCl, 1% Nonidet P-40, 5 mM DTT, 0.5 mM EDTA, 0.5 mM EGTA) supplemented with 1 mM phenylmethansulfonylfluoride, 2 μg/ml leupeptin, 2 μg/ml aprotinin, 1 mM NaF, 100 μM sodium orthovanadate, and 1 μM cantharidin by sonication. The suspended lysate was cleared by centrifugation at 9000g for 20 min and the supernatant was incubated for 1 h with glutathione Sepharose beads (GE Healthcare). The beads were suspended in buffer-H (50 mM Tris-HCl, pH 7.5, 1 M NaCl, 1 mM DTT, 0.5 mM EDTA, 0.5 mM EGTA and 0.05% Brij35) and washed with buffer-H followed by buffer-L (50 mM Tris-HCl, pH 7.5, 150 mM NaCl, 1 mM DTT, 0.5 mM EDTA, 0.5 mM EGTA, 0.05% Brij35) in an Econo-pack column (BIO-RAD). The bound TNIK_N was eluted with elution buffer (50 mM Tris-HCl, pH 8.0, 150 mM NaCl, 1 mM DTT, 10% glycerol, 0.5 mM EDTA, 0.5 mM EGTA and 5 mM reduced glutathione). The eluted fractions were collected and determined the protein concentration by Bradford reagent (BIO-RAD). The TNIKN fractions were pooled and desalted using 10DG column (BIORAD) equilibrated with the storage buffer (50 mM Tris-HCl, pH 7.5, 150 mM NaCl, 1 mM DTT, 10% glycerol, 0.05% Brij35). The purified TNIKN was characterized by electrophoresis using 4-20% polyacrylamide gels and matrix-assisted laser desorption/ionization reflection time-of-flight (MALDI-TOF) mass spectrometry on a Voyager-DE RP MALDI/TOF (Applied Biosystems). TNIK_N was confirmed by the molecular weight and. MASCOT Peptide Mass Fingerprint.
The kinase assays were conducted in a 20 μl volume using 384-well plates (Greiner). The reaction mixture consists of compound or vehicle (1% DMSO), 0.08 ng/μl TNIK_N, 1 μM FITC-labeled substrate peptides, including E-aminocaproic acid and 7 amino acids (described as SEQ ID NO.3 in “Kinase assay of TEST EXAMPLE 1” of WO 2010/064111(P.31)), 20 mM Hepes, pH 7.5, 0.01% Triton X-100, 5 mM MgCl2, 25 μM ATP and 2 mM DTT. As blank, TNIK N was excluded from the reaction mixture of vehicle (1% DMSO). […]
For `COc1cc(Nc2nc(C(N)=O)c(NC(=O)c3ccsc3)s2)cc2ccccc12` [Example 74, 2-[(4-methoxynaphthalen-2-yl)amino]-5-(thio-phene-3-carboxamido)thiazole-4-carboxamide], the IC50 stood at 51.3 nM.

With `NC(=O)c1nc(Nc2ccc3ccccc3c2)sc1NC(=O)c1ccc(Cn2cnc([N+](=O)[O-])n2)cc1` [Example 243, 2-(naphthalen-2-ylamino)-5-{4-[(3-nitro-1H-1,2,4-triazol-1-yl)methyl]benzamido}thiazole-4-carbox-amide], the IC50 amounted to 14.8 nM.

Consider `NC(=O)c1nc(Nc2ccnc3ccccc23)sc1NC(=O)c1ccc(Cn2ccnc2)cc1` [Example 255, 5-{4-[(1H-imidazol-1-yl)methyl]benzamido}-2-(quinolin-4-ylamino)thiazole-4-carboxamide], for which the IC50 is 26.5 nM.

Take `NC(=O)c1nc(Nc2ccc3cc(CO)ccc3c2)sc1NC(=O)c1ccsc1` [Example 70, 2-{[6-(hydroxymethyl)naphthalen-2-yl]amino}-5-(thiophene-3-carboxamido)thiazole-4-carbox-amide]: the IC50 amounted to 5.5 nM.

As to `CN(c1ccc2ncccc2c1)c1nc(C(N)=O)c(NC(=O)c2csc(CN3CCOCC3)c2)s1` [Example 51], the IC50 stood at 5.7 nM.

`NC(=O)c1nc(Nc2ccc3ccc(F)cc3c2)sc1NC(=O)c1ccc(Cn2ccnc2)cc1` [Example 262, 5-{4-[(1H-imidazol-1-yl)methyl]benzamido}-2-[(7-fluoronaphthalen-2-yl)amino]thiazole-4-carbox-amide]: the IC50 worked out at 8.4 nM.

As for `COc1ccc2cc(Nc3nc(C(N)=O)c(NC(=O)C=C(C)C)s3)ccc2c1` [Example 137, 2-[(6-methoxynaphthalen-2-yl)amino]-5-(3-meth-ylbut-2-enamido)thiazole-4-carboxamide], the IC50 was 15.2 nM.

In the case of `CC(=O)Nc1ccc(C(=O)Nc2sc(Nc3cccc4ccccc34)nc2C(N)=O)cc1` [Example 1, 5-(4-acetamidobenzamido)-2-(naphthalen-1-ylamino)thiazole-4-carboxamide], the IC50 is 24.7 nM.

On to `NC(=O)c1nc(Nc2ccc3ccccc3c2)sc1NC(=O)C#CCCO` [Example 225, 5-(5-hydroxypent-2-ynamido)-2-(naphthalen-2-ylamino)thiazole-4-carboxamide], for which the IC50 is 4 nM.

In the case of `COc1ccc2cc(Nc3nc(C(N)=O)c(NC(=O)c4ccc(NCCO)cc4)s3)ccc2c1` [Example 113, 5-{4-[(2-hydroxyethyl)amino]benzamido}-2-[(6-methoxynaphthalen-2-yl)amino]thiazole-4-carbox-amide], the IC50 was found to be 14.8 nM.

With `COc1ccc2cc(Nc3nc(C(N)=O)c(NC(=O)c4ccc(Cn5ccnc5)cc4)s3)ccc2c1` [Example 248, 5-{4-[(1H-imidazol-1-yl)methyl]benzamido}-2-[(6-methoxynaphthalen-2-yl)amino]thiazole-4-carboxamide], the IC50 turned out to be 6.1 nM.

Take `NC(=O)c1nc(Nc2ccc3ccccc3c2)sc1NC(=O)c1ccc(CN2CC[C@H](N)C2)cc1` [Example 220, (S)-5-{4-[(3-aminopyrrolidin-1-yl)methyl]benz-amido}-2-(naphthalen-2-ylamino)thiazole-4-carbox-amide]: the IC50 is 3 nM.

`NC(=O)c1nc(Nc2ccc3ccccc3c2)sc1NC(=O)c1ccc(CN2C(=O)CSC2=O)cc1` [Example 252, 5-{4-[(2,4-dioxothiazolidin-3-yl)methyl]benzamido}-2-(naphthalen-2-ylamino)thiazole-4-carbox-amide]: the IC50 was 15.9 nM.

With `C[C@H](O)CNc1ccc(C(=O)Nc2sc(Nc3ccc4ccccc4c3)nc2C(N)=O)cc1` [Example 146, (S)-5-{4-[(2-hydroxypropyl)amino]benzamido}-2-(naphthalen-2-ylamino)thiazole-4-carboxamide], the IC50 turned out to be 15.1 nM.

Consider `NC(=O)c1nc(Nc2cccc3cccnc23)sc1NC(=O)c1ccc(Cn2ccnc2)cc1` [Example 259, 5-{4-[(1H-imidazol-1-yl)methyl]benzamido}-2-(quinolin-8-ylamino)thiazole-4-carboxamide], for which the IC50 stood at 5.5 nM.

Consider `NC(=O)c1nc(Nc2cccc3ncccc23)sc1NC(=O)c1ccsc1` [Example 40, 2-(quinolin-5-ylamino)-5-(thiophene-3-carbox-amido)thiazole-4-carboxamide], for which the IC50 came out at 9.4 nM.

Turning to `NC(=O)c1nc(Nc2ccc3ccccc3c2)sc1NC(=O)c1ccc(CCO)cc1` [Example 116, 5-[4-(2-hydroxyethyl)benzamido]-2-(naphthalen-2-ylamino)thiazole-4-carboxamide], the IC50 was found to be 5.8 nM.

For the compound `Cc1nnnn1Cc1ccc(C(=O)Nc2sc(Nc3ccc4ccccc4c3)nc2C(N)=O)cc1` [Example 244, 5-{4-[(5-methyl-1H-tetrazol-1-yl)methyl]benz-amido}-2-(naphthalen-2-ylamino)thiazole-4-carbox-amide], the IC50 was found to be 7.1 nM.

In the case of `COc1ccc(C(=O)Nc2sc(Nc3ccc4ncccc4c3)nc2C(N)=O)cc1` [Example 4, 5-(4-methoxybenzamido)-2-(quinolin-6-ylamino) thiazole-4-carboxamide], the IC50 was 21.5 nM.

Consider `NC(=O)c1nc(Nc2ccc3ccc(F)cc3c2)sc1NC(=O)C1CC1` [Example 122, 5-(cyclopropanecarboxamido)-2-[(7-fluoro-naphthalen-2-yl)amino]thiazole-4-carboxamide], for which the IC50 came out at 12.8 nM.

Turning to `NC(=O)c1nc(Nc2ccc3ccccc3c2)sc1NC(=O)c1ccc(CN2CC(O)C2)cc1` [Example 201, 5-{4-[(3-hydroxyazetidin-1-yl)methyl]benzamido}-2-(naphthalen-2-ylamino)thiazole-4-carbox-amide], the IC50 worked out at 5.6 nM.

As to `NC(=O)c1nc(Nc2ccc3ccccc3c2)sc1NC(=O)c1ccc(CN2CCN(CCO)CC2)cc1` [Example 185, 5-(4-{[4-(2-hydroxyethyl)piperazin-1-yl]methyl}benzamido)-2-(naphthalen-2-ylamino)thiazole-4-carboxamide], the concentration for half-maximal inhibition (IC50) came to 2.7 nM.

With `NC(=O)c1nc(Nc2ccc3ccc(F)cc3c2)sc1NC(=O)c1ccc(NCCO)cc1` [Example 124, 2-[(7-fluoronaphthalen-2-yl)amino]-5-{4-[(2-hydroxyethyl)amino]benzamido}thiazole-4-carbox-amide], the IC50 amounted to 12.9 nM.

`Cc1cn(Cc2ccc(C(=O)Nc3sc(Nc4ccc5ccccc5c4)nc3C(N)=O)cc2)cn1` [Example 238, 5-{4-[(4-methyl-1H-imidazol-1-yl)methyl]benz-amido}-2-(naphthalen-2-ylamino)thiazole-4-carbox-amide]: the IC50 was 3.1 nM.

With `NC(=O)c1nc(Nc2ccc3cc(F)ccc3c2)sc1NC(=O)c1ccc(Cn2ccnc2)cc1` [Example 249, 5-{4-[(1H-imidazol-1-yl)methyl]benzamido}-2-[(6-fluoronaphthalen-2-yl)amino]thiazole-4-carbox-amide], the IC50 stood at 10.1 nM.

With `NC(=O)c1nc(Nc2ccc3ccccc3c2)sc1NC(=O)c1ccc(Cc2nn[nH]n2)cc1` [Example 231, 5-{4-[(2H-tetrazol-5-yl)methyl]benzamido}-2-(naphthalen-2-ylamino)thiazole-4-carboxamide], the IC50 was 2.9 nM.

(Values after patent US9102637B2, “Bicyclic thiazole compounds” (CARNA BIOSCIENCES INC., priority 2013, dated 2015).)
